The structures appear in SMILES notation.

This note sets out measurements from patent US9290478B2, “Substituted quinoxalines as FGFR kinase inhibitors” (ASTEX THERAPEUTICS LTD, priority 2010, dated 2016).

For one test, the target named is FGFR3 (h) (Homo sapiens, UniProt P22607). As to the kind of experiment: FGFR3 (enzymatic assay), TR-FRET. It counts as biochemical. As to conditions: 25 μM ATP; read-out: FGFR3 pIC50 (converted). The procedure: (§1) In a final reaction volume of 30 μL, FGFR3 (h) (40 ng/ml) was incubated with 50 mM HEPES pH 7.5, 6 mM MnCl2, 1 mM DTT, 0.1 mM Na3VO4, 0.01% Triton-X-100, 500 nM Btn-Flt3 and 25 μM ATP in the presence of compound (1% DMSO final). After incubation for 60 minutes at room temperature the reaction was stopped with 2.27 nM EU-anti P-Tyr, 7 mM EDTA, 31.25 nM SA-XL-665 and 0.02% BSA which was present for 60 minutes at room temperature. Time-Resolved Fluorescence Resonance Energy Transfer (TR-FRET) signal (ex340 nm. Em 620 nm, em 655 nm) was measured afterwards and results are expressed in RFU (Relative Fluorescence Units). In this assay, the inhibitory effect of different compound concentrations (range 10 μM to 0.1 nM) was determined and used to calculate an IC50 (M) and pIC50 (−log IC50) value.
Sequence of FGFR3 (h) (P22607 23-806): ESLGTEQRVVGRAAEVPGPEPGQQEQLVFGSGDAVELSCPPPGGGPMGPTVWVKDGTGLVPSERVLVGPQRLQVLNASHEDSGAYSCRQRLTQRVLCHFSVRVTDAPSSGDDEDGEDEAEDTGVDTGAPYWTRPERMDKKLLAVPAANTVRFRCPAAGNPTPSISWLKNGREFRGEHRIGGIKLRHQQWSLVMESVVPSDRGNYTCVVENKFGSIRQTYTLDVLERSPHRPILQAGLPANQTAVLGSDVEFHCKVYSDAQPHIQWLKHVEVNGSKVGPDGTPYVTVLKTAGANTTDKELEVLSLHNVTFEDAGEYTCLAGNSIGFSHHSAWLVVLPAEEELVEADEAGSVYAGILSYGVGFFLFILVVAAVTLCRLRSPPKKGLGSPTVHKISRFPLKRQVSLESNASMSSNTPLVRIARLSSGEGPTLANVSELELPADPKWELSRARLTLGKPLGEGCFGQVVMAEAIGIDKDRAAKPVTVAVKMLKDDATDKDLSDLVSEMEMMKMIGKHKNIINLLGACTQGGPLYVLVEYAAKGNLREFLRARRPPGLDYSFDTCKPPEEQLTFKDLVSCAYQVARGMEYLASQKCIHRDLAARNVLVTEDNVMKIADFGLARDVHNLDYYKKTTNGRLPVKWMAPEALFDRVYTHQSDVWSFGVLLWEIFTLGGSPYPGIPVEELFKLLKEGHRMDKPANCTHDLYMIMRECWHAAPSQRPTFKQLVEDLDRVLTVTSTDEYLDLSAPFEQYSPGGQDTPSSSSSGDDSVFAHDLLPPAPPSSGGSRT

Test [1] addresses T1, Ba/F3-Flt3-transfected cells (Homo sapiens, UniProt P36888, cells depend on it, form not given).
T1 construct: BAF3-FLT3 (MIN IL3) pIC50; other: minus IL3
T1 sequence (P36888 1-993): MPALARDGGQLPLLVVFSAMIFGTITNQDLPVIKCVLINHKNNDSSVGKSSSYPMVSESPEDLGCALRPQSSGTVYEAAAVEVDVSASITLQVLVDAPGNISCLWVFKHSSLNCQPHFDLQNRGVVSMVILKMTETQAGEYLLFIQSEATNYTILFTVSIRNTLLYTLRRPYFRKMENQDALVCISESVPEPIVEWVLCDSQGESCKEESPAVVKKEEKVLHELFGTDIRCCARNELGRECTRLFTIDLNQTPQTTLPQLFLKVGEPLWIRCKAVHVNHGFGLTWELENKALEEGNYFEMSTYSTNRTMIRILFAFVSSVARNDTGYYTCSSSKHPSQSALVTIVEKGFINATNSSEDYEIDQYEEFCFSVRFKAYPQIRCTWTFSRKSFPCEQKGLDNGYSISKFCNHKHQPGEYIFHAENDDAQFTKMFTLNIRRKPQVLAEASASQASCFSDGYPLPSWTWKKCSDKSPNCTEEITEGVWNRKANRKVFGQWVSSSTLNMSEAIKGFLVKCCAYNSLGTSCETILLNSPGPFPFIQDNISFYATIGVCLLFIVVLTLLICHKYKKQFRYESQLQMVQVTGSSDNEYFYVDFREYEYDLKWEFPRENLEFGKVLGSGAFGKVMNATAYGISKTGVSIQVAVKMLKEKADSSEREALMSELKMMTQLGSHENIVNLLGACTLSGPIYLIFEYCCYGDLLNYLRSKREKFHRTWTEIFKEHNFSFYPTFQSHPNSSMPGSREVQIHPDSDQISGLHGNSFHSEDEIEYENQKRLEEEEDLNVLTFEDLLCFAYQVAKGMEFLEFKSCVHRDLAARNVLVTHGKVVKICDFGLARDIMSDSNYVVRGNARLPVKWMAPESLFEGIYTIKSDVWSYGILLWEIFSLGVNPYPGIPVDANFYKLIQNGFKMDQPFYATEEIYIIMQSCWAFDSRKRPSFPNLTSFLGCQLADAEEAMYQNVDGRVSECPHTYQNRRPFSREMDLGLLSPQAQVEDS
As to the kind of experiment: Ba/F3-Flt3 (minus IL3 or plus IL3) cellular proliferation assay. It counts as cell-based. As to conditions: minus IL3. Here is the method:
(§2) Ba/F3-Flt3 (Minus IL3 or Plus IL3) (Cellular Proliferation Assay)
(§3) In a 384 well plate, 100 nl of compound dilution in DMSO was sprayed before adding 50 μl cell culture medium (phenol red free RPMI-1640, 10% FBS, 2 mM L-Glutamine and 50 μg/ml Gentamycin) containing 20000 cells per well of Ba/F3-Flt3-transfected cells. Cells were put in an incubator at 37° C. and 5% CO2. After 24 hours, 10 μl of Alamar Blue solution (0.5 mM K3Fe(CN)6, 0.5 mM K4Fe(CN)6, 0.15 mM Resazurin and 100 mM Phosphate Buffer) was added to the wells, incubated for 4 hours at 37° C. and 5% CO2 before RFU's (Relative Fluorescence Units) (ex. 540 nm., em. 590 nm.) were measured in a fluororescence plate reader.
(§4) In this assay, the inhibitory effect of different compound concentrations (range 10 μM to 0.1 nM) was determined and used to calculate an IC50 (M) and pIC50 (−log IC50) value.
(§5) As a counterscreen the same experiment was performed in the presence of 10 ng/ml murine IL3.

The subject of test [2] is Ba/F3-Flt3-transfected cells. The description is as above. As to conditions: plus 10 ng/ml murine IL3 (counterscreen); for IC50: 24 h, read-out: BAF3_FLT3 (PLUS IL3) pIC50 (converted). It counts as cell-based. Here is the method: as §2, §3, §4, §5
(A counterscreen serves to expose hits that act by an unwanted route or on another target.)

The next test has as its target FGFR1 (h) (Homo sapiens, UniProt P11362). As to the kind of experiment: FGFR1 (enzymatic assay), TR-FRET. As to conditions: 5 μM ATP; read-out: FGFR1 pIC50 (converted). It counts as biochemical. Here is the method: as §1, with “μL, FGFR1” for “μL, FGFR3”, “(h) (25” for “(h) (40”, “and 5” for “and 25”
In general terms: TR-FRET usually uses a lanthanide donor and a delayed reading to cut background.

Sequence of FGFR1 (h) (P11362 22-822): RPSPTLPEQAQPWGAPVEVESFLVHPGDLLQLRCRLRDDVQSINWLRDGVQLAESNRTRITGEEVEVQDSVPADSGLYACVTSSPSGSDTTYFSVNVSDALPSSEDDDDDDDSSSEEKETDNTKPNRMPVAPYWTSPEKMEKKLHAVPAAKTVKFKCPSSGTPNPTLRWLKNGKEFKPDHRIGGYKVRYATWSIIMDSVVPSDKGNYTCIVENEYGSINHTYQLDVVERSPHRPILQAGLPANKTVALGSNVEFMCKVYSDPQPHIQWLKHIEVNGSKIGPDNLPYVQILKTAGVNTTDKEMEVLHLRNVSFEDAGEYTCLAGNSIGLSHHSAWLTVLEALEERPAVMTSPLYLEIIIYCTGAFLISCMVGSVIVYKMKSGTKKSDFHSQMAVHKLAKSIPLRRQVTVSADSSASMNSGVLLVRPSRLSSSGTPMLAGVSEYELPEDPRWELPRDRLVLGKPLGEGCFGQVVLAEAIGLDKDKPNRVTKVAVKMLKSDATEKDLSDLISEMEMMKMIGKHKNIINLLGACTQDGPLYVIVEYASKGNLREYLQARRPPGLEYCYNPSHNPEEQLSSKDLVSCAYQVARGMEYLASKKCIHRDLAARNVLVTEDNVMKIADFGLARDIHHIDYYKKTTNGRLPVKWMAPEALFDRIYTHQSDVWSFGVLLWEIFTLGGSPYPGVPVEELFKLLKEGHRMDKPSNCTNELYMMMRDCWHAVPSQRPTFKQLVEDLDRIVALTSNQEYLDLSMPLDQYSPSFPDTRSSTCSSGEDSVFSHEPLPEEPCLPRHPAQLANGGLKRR

Turning to `Cn1cc(-c2cnc3ccc(C(O)c4ccccc4)cc3n2)cn1` (stereo not shown) [Compound 28], the IC50 at FGFR3 (h) was 3720 nM; in test [2], > 10000 nM; at FGFR1 (h), ~1510 nM. Also, the “BAF3-FLT3 (MIN IL3) pIC50” value in test [1] is <5.

Consider `COc1cc(OC)cc(C(CCN2CCCC2=O)c2ccc3ncc(-c4cnn(C)c4)nc3c2)c1.Cl` (stereo not shown) [Compound 7], for which the IC50 at FGFR3 (h) was ~12.6 nM; in test [2], > 10000 nM; at FGFR1 (h), 56.2 nM. The “BAF3-FLT3 (MIN IL3) pIC50” value in test [1] is recorded as <5.

As to `COc1cc(OC)cc(C(CC#N)c2ccc3ncc(-c4cnn(C)c4)nc3c2)c1` (stereo not shown) [Compound 18], the values for the IC50 (on FGFR3 (h); in test [2]; on FGFR1 (h)) were 43.7 nM, > 10000 nM and 72.4 nM, respectively. In test [1], the “BAF3-FLT3 (MIN IL3) pIC50” value is <5.

As to `CNCC(O)(c1cc(OC)cc(OC)c1)c1ccc2ncc(-c3cnn(C)c3)nc2c1.Cl` (single isomer, unassigned) [Compound 38], the IC50 was > 1000 nM on FGFR3 (h) and 776 nM on FGFR1 (h). Also, the “BAF3-FLT3 (MIN IL3) pIC50” value in test [1] is <5. Moreover, in test [2], the “BAF3_FLT3 (PLUS IL3) pIC50” value is recorded as <5.

Regarding `COc1cc(OC)cc(C2(c3ccc4ncc(-c5cnn(C)c5)nc4c3)CC2)c1` [Compound 30], the IC50 on FGFR3 (h) is 43.7 nM; in test [2], > 10000 nM; on FGFR1 (h), 91.2 nM. In test [1], the “BAF3-FLT3 (MIN IL3) pIC50” value is given as <5.

For the compound `COc1cc(OC)cc(C(CC(=O)NC(C)C)c2ccc3ncc(-c4cnn(C)c4)nc3c2)c1` (stereo not shown) [Compound 23], the results for the IC50 (at FGFR3 (h); in test [2]; on FGFR1 (h)) were > 1000 nM, > 10000 nM and > 1000 nM, respectively. For the same compound, the “BAF3-FLT3 (MIN IL3) pIC50” value in test [1] was <5.

Consider `COc1cc(OC)cc(C(CCO)c2ccc3ncc(-c4cnn(C)c4)nc3c2)c1` (stereo not shown) [Compound 22], for which the IC50 is 51.3 nM on FGFR3 (h), > 10000 nM in test [2] and 107 nM on FGFR1 (h). Also, the “BAF3-FLT3 (MIN IL3) pIC50” value in test [1] is <5.

As for `CNCC(O)(c1cc(OC)cc(OC)c1)c1ccc2ncc(-c3cnn(C)c3)nc2c1.Cl` (single isomer, unassigned) [Compound 37], the IC50 was 537 nM on FGFR3 (h), > 10000 nM in test [2] and ~891 nM on FGFR1 (h). Moreover, the “BAF3-FLT3 (MIN IL3) pIC50” value in test [1] is reported as <5.

Regarding `COc1cc(OC)cc(/C(=C/CNC(C)C)c2ccc3ncc(-c4cnn(C)c4)nc3c2)c1` [Compound 9], the figures for the IC50 (at FGFR3 (h); in test [2]; on FGFR1 (h)) were 123 nM, > 10000 nM and 60.3 nM, respectively. Besides, in test [1], the “BAF3-FLT3 (MIN IL3) pIC50” value is reported as ~5.05.

As for `CN(C)CCC(c1ccccc1)c1ccc2ncc(-c3cnn(C)c3)nc2c1` (stereo not shown) [Compound 35], the IC50 on FGFR3 (h) is > 1000 nM; in test [2], > 10000 nM; at FGFR1 (h), > 1000 nM. In addition, in test [1], the “BAF3-FLT3 (MIN IL3) pIC50” value is recorded as <5.
